Laboratory results: patent publication US4593104A, “2-halo-N-(azole-1-yl-methyl)-substituted acetanilides” (BASF Aktiengesellschaft, priority 1976, dated 1986)

Assays:
Arach. hypog. [1] = assay: preemergence treatment in the greenhouse, % damage; type: in vivo, Arachis hypogaea; settings: 0.5 kg/ha
Description: (§1) The vessels employed were plastic flowerpots having a volume of 300 cm^3; the substrate was a sandy loam containing about 1.5% humus. The seeds of the test plants (see Table 1) were sown shallow, and separated according to species. In the case of Cyperus esculentus, pregerminated tubers were planted. In the preemergence treatment, the active ingredients were then immediately applied to the surface of the soil. They were suspended or emulsified in water as the vehicle, and sprayed through atomizing nozzles. After the agents had been applied, the vessels were lightly sprinkler-irrigated to set germination and growth going, and to activate the chemical agents. The vessels were then covered with transparent plastic hoods until the plants had taken root. This cover ensured uniform germination of the test plants (to the extent that this was not impaired by the chemicals), and prevented readily volatile substances from evaporating.
(§2) For postemergence treatment, the plants were first grown to a height of from 3 to 10 cm, depending on their habit, before treated. Hoods were not placed on the pots. The experiments were set up in the greenhouse, hotter areas (25° to 40° C.) being preferred for heat-loving species, and 15° to 30° C. for plants from moderate climates. The experiments were carried out for from 4 to 6 weeks. During this period the plants were tended and their reaction to the various treatments was assessed. The following tables contain the substances investigated, the application rates in kg/ha of active ingredient, and the test plant species. Assessments were made on a 0 to 100 scale, 0 denoting no damage or normal emergence, and 100 denoting no emergence or complete destruction of at least the visible plant parts.

Setaria spp. = assay: preemergence treatment in the greenhouse, % damage; type: in vivo; settings: 0.5 kg/ha
How it was run: (§3)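 Ratings, on a 0 to 100 scale, show injury where 100 means no emergence or complete destruction of visible parts. Compounds in water were sprayed either onto freshly sown soil, which was then watered and hooded, or onto plants 3–10 cm tall. Observation lasted 4–6 weeks.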

Alopec. myosur. = assay: preemergence treatment in the greenhouse, % damage; type: in vivo; settings: 0.5 kg/ha
How it was run: as §3

Brassica napus [2] = assay: preemergence treatment in the greenhouse, % damage; type: in vivo; settings: 0.5 kg/ha
How it was run: as §3

Zea mays = assay: preemergence treatment in the greenhouse, % damage; type: in vivo; settings: 0.5 kg/ha
How it was run: as §3

Bromus spp. = assay: preemergence treatment in the greenhouse, % damage; type: in vivo; settings: 0.5 kg/ha
How it was run: as §3

Solanum nigrum = assay: preemergence treatment in the greenhouse, % damage; type: in vivo; settings: 0.5 kg/ha
How it was run: as §3

Matric. spp. = assay: preemergence treatment in the greenhouse, % damage; type: in vivo; settings: 0.5 kg/ha
How it was run: as §3

Echin. c.g. = assay: preemergence treatment in the greenhouse, % damage; type: in vivo; settings: 0.5 kg/ha
How it was run: as §3

Cyp. diff. = assay: preemergence treatment in the greenhouse, % damage; type: in vivo; settings: 0.5 kg/ha
How it was run: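 Plants in humus-poor sandy loam (~1.5%) received kg/ha doses of active as aqueous spray. Preemergence sprays preceded irrigation and hooding until rooting; postemergence sprays, without hoods, hit 3–10 cm plants. Injury was assessed 0–100 across 4–6 weeks.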

Arach. hypog. [3] = assay: tolerance by various oil crops in the greenhouse (Table 8), % damage; type: in vivo, Arachis hypogaea
Description: as §1, §2

Glyc. max = assay: as above; type: in vivo, Glycine max; settings: varieties: Dare, Lee 68, SRF 450
Description: as §1, §2

Carth. tinct. = assay: as above; type: in vivo, Carthamus tincotius
Description: as §1
For postemergence treatment, the plants were first grown to a height of from 3 to 10 cm, depending on their habit, before treated. Hoods were not placed on the pots. The experiments were set up in the greenhouse, hotter areas (25° to 40° C.) being preferred for heat-loving species, and 15° to 30° C. for plants from moderate climates. […] During this period the plants were tended and their reaction to the various treatments was assessed. […]

Solan. nigrum. = assay: herbicidal action in the greenhouse (Table 8), % damage; type: in vivo
Description: as §1, §2

Seta. spp. = assay: as above; type: in vivo
Description: as §1, §2

Amar. retro. = assay: as above; type: in vivo
Description: as §1, §2

Brassica napus [4] = assay: tolerance by various oil crops in the greenhouse (Table 8), % damage; type: in vivo
Description: as §1, §2

For COc1cc(C)n(CN(C(=O)CCl)c2c(C)cccc2C)n1, the “% damage” value (Arach. hypog. [1]) was 0%, the “% damage” value (Setaria spp.) was 98% and the “% damage” value (Alopec. myosur.) was 95%. The “% damage” value (Brassica napus [2]) was 5%, the “% damage” value (Zea mays) was 20% and the “% damage” value (Bromus spp.) was 95%. For the same compound, the “% damage” value (Solanum nigrum) was 85%, the “% damage” value (Matric. spp.) was 95% and the “% damage” value (Echin. c.g.) was 90%. The “% damage” value (Cyp. diff.) was 100%.
In the case of Cc1cccc(C)c1N(Cn1cncn1)C(=O)CCl [Compound 127], the “% damage” value (Arach. hypog. [3]; 0,5 kg/ha) was 0%, the “% damage” value (Arach. hypog. [3]; 1,0 kg/ha) was 0% and the “% damage” value (Arach. hypog. [3]; 2,0 kg/ha) was 10%. The “% damage” value (Glyc. max; 0,5 kg/ha) was 0%, the “% damage” value (Glyc. max; 1,0 kg/ha) was 0% and the “% damage” value (Glyc. max; 2,0 kg/ha) was 0%. For the same compound, the “% damage” value (Carth. tinct.; 0,5 kg/ha) was 0%, the “% damage” value (Carth. tinct.; 1,0 kg/ha) was 0% and the “% damage” value (Solan. nigrum.; 0,5 kg/ha) was 70%. The “% damage” value (Solan. nigrum.; 1,0 kg/ha) was 90%, the “% damage” value (Solan. nigrum.; 2,0 kg/ha) was 100% and the “% damage” value (Seta. spp.; 0,5 kg/ha) was 95%. The “% damage” value (Seta. spp.; 1,0 kg/ha) was 100%, the “% damage” value (Seta. spp.; 2,0 kg/ha) was 100% and the “% damage” value (Amar. retro.; 0,5 kg/ha) was 82%. The “% damage” value (Amar. retro.; 1,0 kg/ha) was 95%, the “% damage” value (Amar. retro.; 2,0 kg/ha) was 100% and the “% damage” value (Brassica napus [4]; 0,5 kg/ha) was 0%. The “% damage” value (Brassica napus [4]; 1,0 kg/ha) was 0% and the “% damage” value (Brassica napus [4]; 2,0 kg/ha) was 0%.
